From ChEMBL document CHEMBL1201862, “PubChem BioAssay data set” (2004)
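Tested at 5 concentrations; 48 h exposure; 96-well plates; endpoints linearly interpolated, else capped at highest concentration. GI50 = concentration required for 50% inhibition of growth.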 Active and inactive are the calls of the source. No stated cut-off is given here; in the data, active = GI50 up to about 1.1 µM and inactive = higher.

What was measured:
Assay in all cases: inhibition of tumour cell growth, NCI panel, 48 h
NCI-H522 = system: NCI-H522
COLO 205 = system: COLO 205
HL-60 = system: HL-60
A549 = system: A549
EKVX = system: EKVX
LXFL 529 = system: LXFL 529
UACC-257 = system: UACC-257
SF-539 = system: SF-539
DMS-273 = system: DMS-273
SK-OV-3 = system: SK-OV-3
TK-10 = system: TK-10
SNB-78 = system: SNB-78
OVCAR-5 = system: OVCAR-5
NCI-H460 = system: NCI-H460
HCC 2998 = system: HCC 2998
M19-MEL = system: M19-MEL
SR = system: SR
ACHN = system: ACHN
OVCAR-4 = system: OVCAR-4
DLD-1 = system: DLD-1
IGROV-1 = system: IGROV-1
NCI-H23 = system: NCI-H23
A498 = system: A498
786-0 = system: 786-0
HCT-15 = system: HCT-15
SNB-75 = system: SNB-75
OVCAR-3 = system: OVCAR-3
KM12 = system: KM12
RXF 393 = system: RXF 393
RPMI-8226 = system: RPMI-8226
HOP-62 = system: HOP-62
HCT-116 = system: HCT-116
SW-620 = system: SW-620
RXF 631 = system: RXF 631
CAKI-1 = system: CAKI-1
UACC-62 = system: UACC-62
CCRF-CEM = system: CCRF-CEM
M14 = system: M14
LOX IMVI = system: LOX IMVI
HT-29 = system: HT-29
SN12C = system: SN12C
UO-31 = system: UO-31
K562 = system: K562
XF498 = system: XF498
SF-295 = system: SF-295
SK-MEL-2 = system: SK-MEL-2
OVCAR-8 = system: OVCAR-8
KM-20L2 = system: KM-20L2
SNB-19 = system: SNB-19
SK-MEL-5 = system: SK-MEL-5
MOLT-4 = system: MOLT-4
NCI-H226 = system: NCI-H226
Malme-3M = system: Malme-3M
U-251 = system: U-251
HOP-18 = system: HOP-18
HOP-92 = system: HOP-92
SK-MEL-28 = system: SK-MEL-28
SF-268 = system: SF-268
DMS-114 = system: DMS-114

Cc1ccc(S(=O)(=O)N(C=O)N=C2CCN(Cc3ccccc3)CC2)cc1
GI50 (NCI-H522): > 100 µM (inactive)
GI50 (COLO 205): > 100 µM (inactive)
GI50 (HL-60): > 100 µM (inactive)
GI50 (A549): > 100 µM (inactive)
GI50 (EKVX): > 100 µM (inactive)
GI50 (LXFL 529): > 100 µM (inactive)
GI50 (UACC-257): > 100 µM (inactive)
GI50 (SF-539): > 100 µM (inactive)
GI50 (DMS-273): > 100 µM (inactive)
GI50 (SK-OV-3): > 100 µM (inactive)
GI50 (TK-10): > 100 µM (inactive)
GI50 (SNB-78): > 100 µM (inactive)
GI50 (OVCAR-5): > 100 µM (inactive)
GI50 (NCI-H460): > 100 µM (inactive)
GI50 (HCC 2998): > 100 µM (inactive)
GI50 (M19-MEL): > 100 µM (inactive)
GI50 (SR): > 100 µM (inactive)
GI50 (ACHN): > 100 µM (inactive)
GI50 (OVCAR-4): > 100 µM (inactive)
GI50 (DLD-1): > 100 µM (inactive)
GI50 (IGROV-1): > 100 µM (inactive)
GI50 (NCI-H23): > 100 µM (inactive)
GI50 (A498): > 100 µM (inactive)
GI50 (786-0): > 100 µM (inactive)
GI50 (HCT-15): > 100 µM
GI50 (SNB-75): > 100 µM (inactive)
GI50 (OVCAR-3): > 100 µM (inactive)
GI50 (KM12): > 100 µM (inactive)
GI50 (RXF 393): > 100 µM (inactive)
GI50 (RPMI-8226): > 100 µM (inactive)
GI50 (HOP-62): > 100 µM (inactive)
GI50 (HCT-116): > 100 µM (inactive)
GI50 (SW-620): > 100 µM (inactive)
GI50 (RXF 631): > 100 µM (inactive)
GI50 (CAKI-1): > 100 µM (inactive)
GI50 (UACC-62): > 100 µM (inactive)
GI50 (CCRF-CEM): > 100 µM (inactive)
GI50 (M14): > 100 µM (inactive)
GI50 (LOX IMVI): > 100 µM (inactive)
GI50 (HT-29): > 100 µM (inactive)
GI50 (SN12C): > 100 µM (inactive)
GI50 (UO-31): > 100 µM (inactive)
GI50 (K562): > 100 µM (inactive)
GI50 (XF498): > 100 µM (inactive)
GI50 (SF-295): > 100 µM (inactive)
GI50 (SK-MEL-2): > 100 µM (inactive)
GI50 (OVCAR-8): > 100 µM (inactive)
GI50 (KM-20L2): > 100 µM (inactive)
GI50 (SNB-19): > 100 µM (inactive)
GI50 (SK-MEL-5): > 100 µM (inactive)
GI50 (MOLT-4): > 100 µM (inactive)
GI50 (NCI-H226): > 100 µM (inactive)
GI50 (Malme-3M): > 100 µM (inactive)
GI50 (U-251): > 100 µM (inactive)
GI50 (HOP-18): > 100 µM (inactive)

CC(CNCCCNCCNCCCNCO)[N+](=O)[O-] (stereo unspecified)
GI50 (COLO 205): 6.52 µM (inactive)
GI50 (HL-60): 3.89 µM (inactive)
GI50 (A549): 21.9 µM (inactive)
GI50 (EKVX): 16 µM (inactive)
GI50 (LXFL 529): 3.99 µM (inactive)
GI50 (UACC-257): 13.3 µM (inactive)
GI50 (SF-539): 15.4 µM (inactive)
GI50 (DMS-273): 16.5 µM (inactive)
GI50 (SK-OV-3): > 100 µM (inactive)
GI50 (TK-10): 2.49 µM (inactive)
GI50 (SNB-78): 20.6 µM (inactive)
GI50 (OVCAR-5): 13.9 µM (inactive)
GI50 (NCI-H460): 17.2 µM (inactive)
GI50 (HCC 2998): 16.6 µM (inactive)
GI50 (SR): 3.39 µM (inactive)
GI50 (ACHN): 16.7 µM (inactive)
GI50 (OVCAR-4): 14.5 µM (inactive)
GI50 (DLD-1): 3.63 µM (inactive)
GI50 (IGROV-1): 20.4 µM (inactive)
GI50 (NCI-H23): 15 µM (inactive)
GI50 (A498): 17.5 µM (inactive)
GI50 (786-0): 15.7 µM (inactive)
GI50 (HCT-15): 10.8 µM
GI50 (SNB-75): 20.8 µM (inactive)
GI50 (OVCAR-3): 16.5 µM (inactive)
GI50 (KM12): 16.1 µM (inactive)
GI50 (RXF 393): 15.8 µM (inactive)
GI50 (RPMI-8226): 5.06 µM (inactive)
GI50 (HOP-92): 2.65 µM (inactive)
GI50 (HOP-62): > 100 µM (inactive)
GI50 (HCT-116): 10.8 µM (inactive)
GI50 (SK-MEL-28): 13.6 µM (inactive)
GI50 (SW-620): 3.6 µM (inactive)
GI50 (RXF 631): 16 µM (inactive)
GI50 (CAKI-1): 6.11 µM (inactive)
GI50 (UACC-62): 16 µM (inactive)
GI50 (SF-268): 15.7 µM (inactive)
GI50 (CCRF-CEM): 2.75 µM (inactive)
GI50 (M14): 11.4 µM (inactive)
GI50 (LOX IMVI): 14.4 µM (inactive)
GI50 (HT-29): 21.3 µM (inactive)
GI50 (SN12C): 15.1 µM (inactive)
GI50 (UO-31): 16.9 µM (inactive)
GI50 (K562): 3.44 µM (inactive)
GI50 (XF498): 16.1 µM (inactive)
GI50 (SF-295): > 100 µM (inactive)
GI50 (SK-MEL-2): 15.5 µM (inactive)
GI50 (DMS-114): 16.6 µM (inactive)
GI50 (OVCAR-8): 14.4 µM (inactive)
GI50 (KM-20L2): 16.9 µM (inactive)
GI50 (SNB-19): > 100 µM (inactive)
GI50 (SK-MEL-5): 16.3 µM (inactive)
GI50 (MOLT-4): 4.12 µM (inactive)
GI50 (Malme-3M): 2.07 µM (inactive)
GI50 (U-251): 15.9 µM (inactive)
GI50 (HOP-18): 14.7 µM (inactive)
